Measurements taken from patent US10973780B2 (priority 2019, dated 2021).
Counter-ions that a name gives are not always drawn. Like-named read-outs stand apart in the source and are kept apart here.

How the values were obtained:
[1] = elevated pHs around 5.5; cited from earlier work
[2] = pH of ketamine formulations and ketamine HCl solutions; assay type: physicochemical
[3] = cited from earlier work
[4] = cited from earlier work; remark: listed apart in the source
[5] = rat, daily IV injections for 1 month; cited from earlier work
[6] = cited from earlier work; remark: listed apart in the source
[7] = cited from earlier work; remark: listed apart in the source
[8] = cited from earlier work; remark: listed apart in the source
[9] = cited from earlier work; remark: listed apart in the source

CNC1(c2ccccc2Cl)CCCCC1=O (centres unmarked) [ketamine HCl, ketamine hydrochloride]
precipitation [1]: exhibit precipitation
pH ([2]; 100 mg/mL (ketamine freebase equivalent) in water): around 4
average pH ([2]; measured in USP bottles of ketamine 100 mg/mL): 3.74
average pH ([2]; solutions formed from powdered ketamine HCl): 3.93

sulfobutyl-ether-beta-cyclodextrin [SBE-β-CD]
solubility [3]: 600 mg/mL
amount found safe ([4]; 6 months, humans older than 2 years): ~250 mg/kg/day
tolerability ([4]; infusion rates 292 to 4375 mg/min): well-tolerated with no clinically relevant side effects or changes in renal biomarkers
NOEL [5]: 80 mg/kg
osmolality ([6]; 20% solution, degree of substitution 6.5): 785 mOsm/kg
concentration iso-osmotic with blood and extracellular fluid ([6]; according to the manufacturer): 9.5-11.4%

CNC1(c2ccccc2Cl)CCCCC1=O (centres unmarked) [ketamine, 2-(2-chlorophenyl)-2-(methylamino)cyclohexanone]
Bioavailability (grade) ([7]; Intramuscular): High
Bioavailability ([7]; Intranasal): 25-50%
Bioavailability (grade) ([7]; Intranasal): Low
Bioavailability ([7]; Intravenous): 100%
Bioavailability (grade) ([7]; Intravenous): Highest
Bioavailability ([7]; Oral): 11-20%
Bioavailability (grade) ([7]; Oral): Very Low
Bioavailability ([7]; Subcutaneous): >90%
Bioavailability (grade) ([7]; Subcutaneous): High
Bioavailability ([7]; Sublingual): 29%
Bioavailability (grade) ([7]; Sublingual): Low
Metabolite Exposure ([8]; Intramuscular): Low
Metabolite Exposure ([8]; Intranasal): High
Metabolite Exposure ([8]; Intravenous): Low
Metabolite Exposure ([8]; Subcutaneous): Low
Metabolite Exposure ([8]; Sublingual): High
increase in exposure to undesirable inflammatory metabolites ([8]; oral dosing to reach equivalence to a short IV or IM treatment): up to 9 fold
increase in exposure to undesirable inflammatory metabolites ([8]; sublingual route): 3 fold
Side Effects ([9]; Intramuscular): High
Side Effects ([9]; Intranasal): High
Side Effects ([9]; Intravenous): Moderate
Side Effects ([9]; Oral): Moderate
Side Effects ([9]; Subcutaneous): Low
Side Effects ([9]; Sublingual): Moderate

CC(O)COC[C@H]1O[C@@H]2O[C@H]3[C@H](O)[C@@H](O)[C@@H](O[C@H]4[C@H](O)[C@@H](O)[C@@H](O[C@H]5[C@H](O)[C@@H](O)[C@@H](O[C@H]6[C@H](O)[C@@H](O)[C@@H](O[C@H]7[C@H](O)[C@@H](O)[C@@H](O[C@H]8[C@H](O)[C@@H](O)[C@@H](O[C@H]1[C@H](O)[C@H]2O)O[C@@H]8COCC(C)O)O[C@@H]7COCC(C)O)O[C@@H]6COCC(C)O)O[C@@H]5COCC(C)O)O[C@@H]4COCC(C)O)O[C@@H]3COCC(C)O (stereo partly drawn) [HP-β-CD, hydroxypropyl-beta-cyclodextrin]
amount found safe ([4]; in vivo): ~250 mg/kg/day
